# Literature values, collected in patent US12404360B2, “Method of preparing graft copolymer” (LG CHEM, LTD., priority 2019, dated 2025).
# Tests used:
# [1] = not given; remark: listed apart in the source
SMILES,10-hour half-life decomposition temperature in water [°C],Solubility in water at 20° C. [1] [g/100 g],10-hour half-life decomposition temperature in toluene [°C],10-hour half-life decomposition temperature in methanol (in methanol) [°C]
CC(C)(/N=N/C(C)(C)C(=N)N)C(=N)N [VA-050],56,–,–,–
CC(C)(/N=N/C(C)(C)C1=NCCN1)C1=NCCN1 [VA-044],44,35.2,–,–
CC(C)CC(C)(C#N)/N=N/C(C)(C#N)CC(C)C (stereo not drawn) [Example V-65],–,< 0.1,51,–
CC(C)(/N=N/C(C)(C)C(=O)NCCO)C(=O)NCCO [VA-086],86,2.4,–,–
CC(C)(/N=N/C(C)(C)C(=N)NCCC(=O)O)C(=N)NCCC(=O)O [VA-057],57,14,–,–
CC(C)(C#N)/N=N/C(C)(C)C#N [AIBN],–,< 0.1,65,–
CC(C#N)(CCC(=O)O)/N=N/C(C)(C#N)CCC(=O)O (stereo not drawn) [VA-501],69,0.1,–,–
CC(C)(/N=N/C(C)(C)C1=NCCN1)C1=NCCN1 [VA-061],–,0.5,–,61
